Patent publication US8512995B2, “DNA encoding polypeptide involved in biosynthesis of herboxidiene” (Eisai R&D Management Co., Ltd., priority 2008, dated 2013)

System: WiDr human colon cancer cells
Assay: Proliferation inhibitory action on WiDr human colon cancer cells (CellTiter-Glo luminescence)
Format: cell-based
Conditions: 72 h, 3 days culture, CellTiter-Glo luciferase luminescence as indicator of living cells
Experimental: WiDr human colon cancer cells, which had been cultured in an RPMI1640 medium (manufactured by SIGMA) containing 10% fetal bovine serum, penicillin (100 units/mL) and streptomycin (100 μg/mL), were dispersed on a 96-well plate in an amount of 2×10^3 cells/90 μl/well. The cells were cultured in a CO2 incubator overnight. Thereafter, 10 μl of the aforementioned culture solution containing the compound HX354 or HX355 of 3-fold dilution series used in the aforementioned examples was added to the culture, and the mixture was then cultured. Three days later, 50 μl of CellTiter-Glo Luminescent Cell Viability Assay (Promega) was added to the culture, the mixture was then shaken for 2 minutes, and it was then left at rest for 15 minutes. Thereafter, luciferase luminescence was measured with a luminometer, and the measured luminescence was used as an indicator for the number of living cells
The concentrations (IC50 values) of HX354 and HX355, where the proliferation of the WiDr human colon cancer cells was inhibited by were obtained.

Row | Compound | IC50 [nM]
1 | CCC(OC)C(C)C1OC1(C)CC(C)/C=C/C=C(\C)C1OC(CC(=O)O)CCC1C (centres unmarked) [HX354] | 91
2 | CCC(O)C(C)C1OC1(C)CC(C)/C=C/C=C(\C)C1OC(CC(=O)O)CCC1C (centres unmarked) [HX355] | 168
